Where two headings read alike, the source gives them in different places.
Assays:
Hela = test: MTS cell proliferation assay, Hela; assay type: cell-based, human; settings: Hela cervical cancer, 48 h, read-out: IC50 ± SD, in vitro cytotoxicity Hela
Procedure: (§1) Cell lines were grown with routine culture techniques in RPMI 1640 supplemented with 9% foetal bovine serum at 37 °C in 5% CO2.
(§2) Cells were plated in 96-well plates at a density of 5000 cells per well. Twelve hours after seeding, cells were treated with various concentrations of test compounds for 48 h. Cell viability was assessed with the MTS assay (Promega) according to the manufacturer's instruction.
(§3) To determine the efficiency of 3a-3h as antitumour agents, we assessed the in vitro cytotoxicity of 3a-3h using several different tumour cell lines derived from human colon cancer (HCT116), breast cancer (MCF7), cervical cancer (Hela) and lung cancer (H1299) and mouse melanoma (B16). […] This discrepancy may be due to the different properties of these compounds such as cell penetration that is important in the cellular assay.

MCF7 = test: MTS cell proliferation assay, MCF7; assay type: cell-based, human; settings: MCF7 breast cancer, 48 h, read-out: IC50 ± SD, in vitro cytotoxicity MCF7
Procedure: as §1, §2, §3

HCT116 = test: MTS cell proliferation assay, HCT116; assay type: cell-based, human; settings: 48 h, read-out: IC50 ± SD, in vitro cytotoxicity HCT116
Procedure: as §1, §2, §3

B16 = test: MTS cell proliferation assay, B16; assay type: cell-based; settings: B16 mouse melanoma, 48 h, read-out: IC50 ± SD, in vitro cytotoxicity B16
Procedure: as §1, §2, §3

PKM2 = target: T1, PKM2 (Homo sapiens, UniProt P14618); test: PKM2 activity assay (fluorescent pyruvate kinase-lactate dehydrogenase coupled assay); assay type: biochemical; settings: recombinant human PKM2, fluorescent PK-LDH coupled assay; read-out: IC50 ± SD, PKM2 inhibitory activity
T1 construct: His tag (N); made in house; host or cells: Escherichia coli BL21
Procedure: Human cDNA for PKM2 was cloned into pET28a^+ with a N-terminal His tag and purified from Escherichia coli strain BL21 (Invitrogen) using Ni-Agarose beads (Qiagen) as described previously.
Pyruvate kinase activity was measured with a fluorescent pyruvate kinase-lactate dehydrogenase coupled assay as previously described.
We first tested the effect of compound 3a-3h on PKM2 activity using a fluorescent PK-LDH coupled assay according to a previously reported method. Shikonin, which is a known inhibitor of PKM2, was used as the positive control. […] The preliminary SAR can be summarised as follows. The amine moiety of target compounds greatly influenced PKM2 inhibitory activity. Introduction of a short chain N, N-dimethylamine reduced the inhibitory activity (3b vs. 3c and 3d). When the n-propyl amine in 3d was replaced by allyl amine (3e), the inhibitory activity was lowered. […] Introduction of a sulphur atom therefore contributed to improvement of PKM2 inhibitory activity.

H1299 = test: MTS cell proliferation assay, H1299; assay type: cell-based, human; settings: 48 h, read-out: IC50 ± SD, in vitro cytotoxicity H1299
Procedure: as §1, §2, §3

[1] = system: HCT116, MCF7, Hela, H1299 and B16 cells; test: MTS cell proliferation assay, range over the tumour cell panel; assay type: cell-based; settings: range over the five cell lines, read-out: IC50 values against HCT116, MCF7, Hela, H1299 and B16 cells (range over cell lines)
Procedure: as §1, §2, §3

BEAS-2B cells = test: Cytotoxicity in normal BEAS-2B cells; assay type: cell-based; settings: normal human bronchial epithelial cells
Procedure: as §1, §2
To further explore the selectivity of target compounds against cancer cells, we tested the cytotoxicity of representative compound 3f in BEAS-2B cells derived from normal human bronchial epithelial cells.

[2] = Homo sapiens, HCT-116, HCT116 colon cancer
[3] = Homo sapiens, NCI-H1299, H1299 lung cancer

T1 sequence (P14618 whole entry): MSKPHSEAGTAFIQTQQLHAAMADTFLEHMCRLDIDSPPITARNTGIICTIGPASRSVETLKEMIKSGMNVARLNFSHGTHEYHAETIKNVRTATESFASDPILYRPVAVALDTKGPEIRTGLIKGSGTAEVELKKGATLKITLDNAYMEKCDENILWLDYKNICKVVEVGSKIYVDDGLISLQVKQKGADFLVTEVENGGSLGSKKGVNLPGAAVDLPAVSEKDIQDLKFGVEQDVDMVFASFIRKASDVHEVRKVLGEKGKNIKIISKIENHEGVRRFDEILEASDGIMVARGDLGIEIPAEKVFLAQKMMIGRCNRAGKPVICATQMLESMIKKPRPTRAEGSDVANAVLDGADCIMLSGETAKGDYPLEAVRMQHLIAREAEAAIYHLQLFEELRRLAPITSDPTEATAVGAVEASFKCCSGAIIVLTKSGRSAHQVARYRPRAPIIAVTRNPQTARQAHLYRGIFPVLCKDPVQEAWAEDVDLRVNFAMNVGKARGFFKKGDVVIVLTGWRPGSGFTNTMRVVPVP

SMILES | IC50 (PKM2) | IC50 [1] | melting point | IC50 (Hela) | IC50 (MCF7) | IC50 (HCT116; HCT116 colon cancer) | IC50 (B16) | IC50 (H1299; H1299 lung cancer) | IC50 (Hela; Homo sapiens) | IC50 (MCF7; Homo sapiens) | IC50 (HCT116; [2]) | IC50 (H1299; [3]) | IC50 (BEAS-2B cells)
O=C1C(CSC(=S)N2CCOCC2)=C(CSC(=S)N2CCOCC2)C(=O)c2ccccc21 [3a, dimorpholine-dithiocarbamic acid 3-dimorpholinethiocarbamoylsulphanylmethyl-1,4-dioxo-1,4-dihydro-naphthalen-2-ylmethyl ester] | 2.64 ± 0.98 µM |  |  | 0.337 ± 0.054 µM | 0.34 ± 0.003 µM | 0.214 ± 0.003 µM | 0.272 ± 0.01 µM | 0.331 ± 0.091 µM |  |  |  |  | 
CN(C)C(=S)SCC1=C(CSC(=S)N(C)C)C(=O)c2ccccc2C1=O [3b, dimethyl-dithiocarbamic acid 3-dimethylthiocarbamoylsulphanylmethyl-1,4-dioxo-1,4-dihydro-naphthalen-2-ylmethyl ester] | > 10 µM | 0.069 to 0.122 µM |  |  |  |  | 0.104 ± 0.011 µM |  | 0.122 ± 0.017 µM | 0.069 ± 0.009 µM | 0.088 ± 0.004 µM | 0.109 ± 0.002 µM | 
O=C1C(CSC(=S)N2CCSCC2)=C(CSC(=S)N2CCSCC2)C(=O)c2ccccc21 [3f, dithiamorpholine-dithiocarbamic acid 3-dithiamorpholinethiocarbamoylsulphanylmethyl-1,4-dioxo-1,4-dihydro-naphthalen-2-ylmethyl ester] | 1.05 ± 0.17 µM |  |  | 0.412 ± 0.018 µM | 0.194 ± 0.055 µM | 0.189 ± 0.035 µM | 0.189 ± 0.006 µM | 0.206 ± 0.018 µM |  |  |  |  | 11.5 ± 0.62 µM
O=C1C(CSC(=S)N2CCSC2)=C(CSC(=S)N2CCSC2)C(=O)c2ccccc21 [3h, dithiazolidine-dithiocarbamic acid 3-dithiazolidinethiocarbamoylsulphanylmethyl-1,4-dioxo-1,4-dihydro-naphthalen-2-ylme-thyl ester] | 0.96 ± 0.18 µM |  |  | 1.13 ± 0.08 µM | 0.234 ± 0.045 µM | 0.374 ± 0.015 µM | 0.317 ± 0.022 µM | 0.306 ± 0.008 µM |  |  |  |  | 
CC(C)=CC[C@@H](O)C1=CC(=O)c2c(O)ccc(O)c2C1=O [Shikonin, reference compound] | 8.82 ± 2.62 µM |  |  |  |  |  | 1.22 ± 0.155 µM |  | 0.813 ± 0.081 µM | 2.41 ± 0.346 µM | 1.06 ± 0.182 µM | 0.954 ± 0.186 µM | 

Further lines, with some results ahead:

IC50 (PKM2) | IC50 [1] | melting point | SMILES | IC50 (Hela) | IC50 (MCF7) | IC50 (HCT116; HCT116 colon cancer) | IC50 (B16) | IC50 (H1299; H1299 lung cancer) | IC50 (Hela; Homo sapiens) | IC50 (MCF7; Homo sapiens) | IC50 (HCT116; [2]) | IC50 (H1299; [3]) | IC50 (BEAS-2B cells)
2.78 ± 0.97 µM | 0.084 to 0.251 µM | 130 to 131 °C | CCN(CC)C(=S)SCC1=C(CSC(=S)N(CC)CC)C(=O)c2ccccc2C1=O [3c, diethyl-dithiocarbamic acid 3-diethylthiocarbamoylsulphanylmethyl-1,4-dioxo-1,4-dihydro-naphthalen-2-ylmethyl ester] |  |  |  | 0.108 ± 0.01 µM |  | 0.251 ± 0.059 µM | 0.084 ± 0.003 µM | 0.093 ± 0.002 µM | 0.144 ± 0.013 µM | 
3.08 ± 1.23 µM |  | 111 to 112 °C | CCCN(CCC)C(=S)SCC1=C(CSC(=S)N(CCC)CCC)C(=O)c2ccccc2C1=O [3d, dipropyl-dithiocarbamic acid 3-dipropylthiocarbamoylsulphanylmethyl-1,4-dioxo-1,4-dihydro-naphthalen-2-ylmethyl ester] |  |  |  | 0.787 ± 0.203 µM |  | > 10 µM | > 10 µM | 0.597 ± 0.014 µM | 0.83 ± 0.162 µM | 
> 10 µM |  |  | C=CCN(CC=C)C(=S)SCC1=C(CSC(=S)N(CC=C)CC=C)C(=O)c2ccccc2C1=O [3e, diallyl-dithiocarbamic acid 3-diallylthiocarbamoylsulphanylmethyl-1,4-dioxo-1,4-dihydro-naphthalen-2-ylmethyl ester] |  |  |  | 0.709 ± 0.027 µM |  | 3.46 ± 3.19 µM | 1.09 ± 0.421 µM | 0.742 ± 0.045 µM | 1.02 ± 0.111 µM | 
2.33 ± 0.52 µM |  |  | O=C1C(CSC(=S)N2CCCC2)=C(CSC(=S)N2CCCC2)C(=O)c2ccccc21 [3g, dipyrrolidine-dithiocarbamic acid 3-dipyrrolidinethiocarbamoylsulphanylmethyl-1,4-dioxo-1,4-dihydro-naphthalen-2-ylmethyl ester] | 0.298 ± 0.053 µM | 0.638 ± 0.02 µM | 0.164 ± 0.003 µM | 0.159 ± 0.002 µM | 0.247 ± 0.015 µM |  |  |  |  | 
2.95 ± 0.53 µM |  |  | CC1=C(CSC(=S)N2CCCCC2)C(=O)c2ccccc2C1=O [3k, reference compound] |  |  |  |  |  |  |  |  |  | 

— PMC6010099, “Synthesis and antitumor activity of novel 2, 3-didithiocarbamate substituted naphthoquinones as inhibitors of pyruvate kinase M2 isoform” (Journal of Enzyme Inhibition and Medicinal Chemistry, 2017)
